The values that follow come from article PMC9024521, “4-Heteroaryl Substituted Amino-3,5-Dicyanopyridines as New Adenosine Receptor Ligands: Novel Insights on Structure-Activity Relationships and Perspectives” (Pharmaceuticals, 2022).

The target of one data set is T1, hA2AAR (Homo sapiens, UniProt P29274).
T1 construct: host or cells: CHO cells
In words: Competition binding, [3H]ZM241385, hA2A CHO cell membranes. As to conditions: displacement of [3H]ZM241385, hA2A CHO cells; mean ± SEM of four assays. As to the method:
(§1) CHO cells transfected with hA1, hA2A, hA2B and hA3 ARs (Perkin Elmer, Boston, MA, USA) were grown adherently and maintained in Dulbecco’s modified Eagle’s medium with nutrient mixture F12, containing 10% fetal calf serum, penicillin (100 U/mL), streptomycin (100 μg/mL), L-glutamine (2 mM) and geneticine (G418; 0.2 mg/mL), at 37 °C, in 5% CO2/95% air, until their use in cAMP assays. For membrane preparation, the culture medium was removed, and the cells were washed with phosphate-buffered saline and scraped off T75 flasks in ice-cold hypotonic buffer (5 mM Tris HCl, 1 mM EDTA, pH 7.4). The cell suspension was homogenized with a Polytron, centrifuged for 30 min at 40,000× g, at 4 °C, and the resulting membrane pellet was used for competition binding experiments.
(§2) All synthesized compounds were tested for their affinity to hA1, hA2A and hA3 ARs. Competition experiments to hA1AR were carried out by incubating 1 nM [^3H]-8-cyclopentyl-1,3-dipropylxanthine ([^3H]-DPCPX) with membrane suspension (50 μg of protein/100 μL) and different concentrations of the examined compounds at 25 °C for 90 min in 50 mM Tris HCl, pH 7.4. Non-specific binding was defined as binding in the presence of 1 μM DPCPX and was always <10% of the total binding. Inhibition experiments to hA2A ARs were performed by incubating the radioligand [^3H]-4-(-2-[7-amino-2-{2-furyl}{1,2,4}triazolo{2,3-a} {1,3,5}triazin-5-yl-amino]ethyl)phenol ([^3H]-ZM241385) (1 nM) with the membrane suspension (50 μg of protein/100 μL) and different concentrations of the examined compounds for 60 min, at 4 °C, in 50 mM Tris HCl (pH 7.4), 10 mM MgCl2. Non-specific binding was determined in the presence of ZM241385 (1 μM) and was about 20% of the total binding. Competition binding experiments to A3ARs were carried out by incubating the membrane suspension (50 μg of protein/100 μL) with 0.5 nM [^125I]-N6-(4-aminobenzyl)-N-methylcarboxamidoadenosine ([^125I]-ABMECA) in the presence of different concentrations of the examined compounds for an incubation time of 120 min, at 4 °C, in 50 mM Tris HCl (pH 7.4), 10 mM MgCl2, 1 mM EDTA. Non-specific binding was defined as binding in the presence of 1 μM ABMECA and was always <10% of the total binding. Bound and free radioactivity were separated by filtering the assay mixture through Whatman GF/B glass-fiber filters, using a Brandel cell harvester (Brandel Instruments, Unterföhring, Germany). The filter bound radioactivity was counted by Packard Tri Carb 2810 TR scintillation counter (Perkin Elmer).
(§3) The protein concentration was determined according to a Bio-Rad method, with bovine albumin as a standard reference. Inhibitory binding constant (Ki) values were calculated from those of IC50 according to the Cheng–Prusoff equation, Ki = IC50/(1 + [C*]/KD*), where [C*] is the concentration of the radioligand, and KD* its dissociation constant. Ki and IC50 values were calculated by non-linear regression analysis, using the equation for a sigmoid concentration-response curve (Graph-PAD Prism, San Diego, CA, USA).

The nature of data set [1]: In vitro permeation, vertical Franz diffusion cell. The format is in vitro ADME. The following applies: cellulose nitrate membrane impregnated with lauryl alcohol, PBS pH 7.4 + Tween 80 2% w/w, 37 °C. As to the method:
Compounds 1 and 5 were evaluated for their capability to penetrate the artificial membrane simulating the epidermal barrier. Permeation flux was assessed by using vertical Franz diffusion cells.
Compound assay was performed by HPLC (Merck Hitachi Elite LaChrom apparatus, Darmstadt, Germany), equipped with a L-2400 UV–Vis detector and an L-2130 isocratic pump. The mobile phase A was water, and the mobile phase B was methanol. Gradient steps were programmed as follows: A–B 60%–40% at time 0, ramped to 70% B in 3 min, held at 70% for 2 min and returned to initial conditions during 3 min. A Hibar Purospher® RP-8e (150 × 4.6 mm, 5 µm pore size) was the stationary phase. UV detection was performed at 292 nm. The injection volume was 20 µL, the flow rate was 1.2 mL/min and the column temperature was 40 ± 1 °C. Under these conditions, the compounds retention time was 5.30 ± 0.01 min. The method was validated for linearity (r^2 = 0.998; r^2 = 0.997), limit of quantification (3.03 µg/mL; 4.50 µg/mL) and limit of detection (0.91 µg/mL; 1.35 µg/mL) for P293BL and P297, respectively.
In vitro permeation studies were carried out by using vertical Franz diffusion cell (Rofarma, Gaggiano, Italy). […] A correction for the cumulative dilution, due to the sample replacement with an equal volume of fresh medium, was calculated. […]

The next data set concerns the target T2, hA3AR (Homo sapiens, UniProt P0DMS8).
T2 construct: host or cells: CHO cells
T2 sequence (P0DMS8 1-318): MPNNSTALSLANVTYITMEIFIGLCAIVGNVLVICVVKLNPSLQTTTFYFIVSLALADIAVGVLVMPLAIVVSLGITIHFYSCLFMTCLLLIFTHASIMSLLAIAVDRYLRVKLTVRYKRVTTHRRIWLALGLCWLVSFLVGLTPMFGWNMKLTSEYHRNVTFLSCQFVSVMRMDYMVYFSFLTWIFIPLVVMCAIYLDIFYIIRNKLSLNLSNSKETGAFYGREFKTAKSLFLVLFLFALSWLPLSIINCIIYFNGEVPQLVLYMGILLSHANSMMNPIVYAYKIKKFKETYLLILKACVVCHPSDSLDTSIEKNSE
Put plainly: Competition binding, [125I]AB-MECA, hA3 CHO cell membranes. As to conditions: displacement of [125I]AB-MECA, hA3 CHO cells; mean ± SEM of four assays. As to the method: as §1, §2, §3

T1 sequence (P29274 whole entry): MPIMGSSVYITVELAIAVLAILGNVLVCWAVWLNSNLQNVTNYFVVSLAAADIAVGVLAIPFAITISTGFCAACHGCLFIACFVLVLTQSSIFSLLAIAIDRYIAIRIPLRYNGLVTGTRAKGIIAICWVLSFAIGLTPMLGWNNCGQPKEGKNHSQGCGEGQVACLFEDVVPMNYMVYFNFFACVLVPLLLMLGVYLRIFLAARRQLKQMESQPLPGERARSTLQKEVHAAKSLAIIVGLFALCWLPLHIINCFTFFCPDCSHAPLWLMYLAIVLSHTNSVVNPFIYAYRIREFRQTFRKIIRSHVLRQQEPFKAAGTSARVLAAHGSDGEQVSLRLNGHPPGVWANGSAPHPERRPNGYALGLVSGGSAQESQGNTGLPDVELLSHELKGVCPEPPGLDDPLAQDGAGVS

For `N#Cc1c(N)nc(SCc2ncc[nH]2)c(C#N)c1-c1cccs1` [Compound 5, 2-Amino-6-[(1H-imidazol-2-ylmethyl)sulfanyl]-4-(thiophen-2-yl)pyridine-3,5-dicarbonitrile], the Ki was determined as 24 ± 2 nM on hA2AAR and 25 ± 2 nM at hA3AR. Also, in data set [1], the “amount of permeated drug after 24 h” value is 22.7 ± 1.0 µg/mL.
The like results for `N#Cc1c(N)nc(SCc2ncc[nH]2)c(C#N)c1-c1ccco1` [Compound 1, 2-Amino-4-(furan-2-yl)-6-[(1H-imidazol-2-ylmethyl)sulfanyl]pyridine-3,5-dicarbonitrile] were, in that order, 21 ± 2 nM, 52 ± 5 nM and 15.0 ± 1.4 µg/mL.
